Data as given in PubChem BioAssay (NCI).
Several values for one entry are separate records, joined by “and”; a condition that tells them apart may be missing. Identical values can stand only once.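 Tested at 5 concentrations; 48 h exposure; 96-well plates; endpoints linearly interpolated, else capped at highest concentration. GI50 marks 50% less growth. TGI denotes the concentration required for complete inhibition of growth.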

Legend:
Experiment in all cases: NCI anticancer screen, dose series, 48 h
MOLT-4 leukemia = tested on: MOLT-4 leukemia
UACC-62 melanoma = tested on: UACC-62 melanoma
COLO 205 colon = tested on: COLO 205 colon
NCI-H522 lung = tested on: NCI-H522 lung
UACC-257 melanoma = tested on: UACC-257 melanoma
OVCAR-5 ovarian = tested on: OVCAR-5 ovarian
HCT-15 colon = tested on: HCT-15 colon
SNB-19 CNS = tested on: SNB-19 CNS
HS 578T breast = tested on: HS 578T breast
SR leukemia = tested on: SR leukemia

SMILES | TGI (MOLT-4 leukemia) | TGI (UACC-62 melanoma) | TGI (COLO 205 colon) | TGI (NCI-H522 lung) | TGI (UACC-257 melanoma) | TGI (OVCAR-5 ovarian) | TGI (HCT-15 colon) | TGI (SNB-19 CNS) | GI50 (MOLT-4 leukemia) | GI50 (UACC-62 melanoma) | GI50 (COLO 205 colon) | GI50 (NCI-H522 lung) | GI50 (UACC-257 melanoma) | GI50 (HS 578T breast) | TGI (HS 578T breast) | GI50 (OVCAR-5 ovarian) | GI50 (HCT-15 colon) | GI50 (SNB-19 CNS) | GI50 (SR leukemia) | TGI (SR leukemia)
O=C(CC1(O)C(=O)Nc2ccccc21)c1ccc(Cl)cc1Cl (stereo not given) | > 100 µM | > 100 µM | > 100 µM | > 100 µM | > 100 µM | > 100 µM | > 100 µM | > 100 µM | – | – | – | – | – | – | – | – | – | – | – | –
O=c1cc(-c2ccccc2)oc2c1ccc1ccccc12 | 51.5 µM | > 100 µM | > 100 µM | > 100 µM | > 100 µM | > 100 µM | > 100 µM | > 100 µM | 23.5 µM | 12.3 µM | 24.2 µM | 30.5 µM | 54.8 µM | 23.4 µM | 83.2 µM | 50.7 µM | 30 µM | 6.1 µM | – | –
CCn1c(SCC(=O)Nc2cc(C(F)(F)F)ccc2Cl)nc2ccccc2c1=O | > 100 µM | > 100 µM | > 100 µM | – | – | > 100 µM | > 100 µM | > 100 µM | > 100 µM | 38.4 µM | > 100 µM | – | – | 13 µM | 48.7 µM | 61.9 µM | 8.46 µM | 32.8 µM | > 100 µM | > 100 µM
CCC[CH2][Sn]1([CH2]CCC)[O]CC[S]1 | 2.4 µM | 1.56 µM | 3.29 µM | 0.187 µM | 2.04 µM | 2.72 µM | 2.25 µM | 1.6 µM | 0.37 µM | 0.392 µM | 0.969 µM | 0.041 µM | 0.679 µM | – | – | 1.39 µM | 0.799 µM | 0.446 µM | – | –
O=C1NC2(CCCC2)C2CCCCC12O (stereo not given) | > 100 µM | > 100 µM | > 100 µM | > 100 µM | > 100 µM | > 100 µM | > 100 µM | > 100 µM | – | – | – | – | – | – | – | – | – | – | – | > 100 µM
C[C@]12CCc3nonc3C1CC[C@@H]1C2CC[C@@]2(C)C1CC[C@@H]2O (stereo not given in full) | > 100 µM | > 100 µM | > 100 µM | > 100 µM | > 100 µM | > 100 µM | > 100 µM | > 100 µM | – | – | – | – | – | – | – | – | – | – | – | –
CC(=O)NCc1c(C(N)=O)ncn1Cc1ccccc1 | > 100 µM | > 100 µM | > 100 µM | – | > 100 µM | – | > 100 µM | > 100 µM | – | – | – | – | – | – | – | – | – | – | – | –
CCN(CC)CCCNc1n[n+]([O-])c2ccccc2[n+]1[O-] | 11.4 µM | 26 µM | 40.1 µM | 26.5 µM | 54.7 µM | 69.7 µM | 31.5 µM | > 100 µM | – | – | – | – | – | – | – | – | – | – | – | 76.2 µM
CC1(C)CCc2c(c(N=Nc3ccccc3F)c3ccccc3c2O)O1 | > 100 µM | > 100 µM | > 100 µM | > 100 µM | > 100 µM | > 100 µM | > 100 µM | > 100 µM | > 100 µM | > 100 µM | > 100 µM | 38.6 µM | > 100 µM | 28.6 µM | 99.7 µM | 73.7 µM | 78.3 µM | 36.8 µM | – | –
N#CC(C(=O)CCC(=O)Nc1cccc(C(F)(F)F)c1)c1ccccc1 (stereo not given) | > 100 µM | > 100 µM | – | > 100 µM | > 100 µM | > 100 µM | > 100 µM | > 100 µM | – | – | – | – | – | – | – | – | – | – | – | –
O=C(c1ccccc1)C1OC1C(=O)c1ccccc1 (stereo not given) | – | 15.9 µM | 15.4 µM | 2.24 µM | 29.6 µM | 25.2 µM | 12.2 µM | > 100 µM | – | 2.91 µM | 4.94 µM | 0.323 µM | 5.75 µM | 3.01 µM | > 100 µM | 3.86 µM | 2.61 µM | 14.1 µM | – | –
COc1ccccc1NC(=O)C1=C(C)NC(C)=C(C(=O)Nc2ccccc2OC)C1c1ccccc1Cl | > 100 µM | > 100 µM | > 100 µM | – | > 100 µM | > 100 µM | > 100 µM | > 100 µM | – | – | – | – | – | – | – | – | – | – | – | > 100 µM
CC(C)CCCCCCCCCCCCC(=O)NCC(=O)NC1C(C)OC(Nc2ncnc3nc[nH]c23)C(O)C1O (stereo not given) | 0.00788 µM and 0.0323 µM | 0.00892 µM and 0.0226 µM | – | 0.0182 µM | 0.472 µM | – | 3.84 µM | – | 0.00213 µM | 0.000425 µM and 0.000705 µM | – | 0.00137 µM | – | – | – | 0.00814 µM | 0.573 µM | 0.00845 µM | 0.00451 µM | –
COc1cc2c(cc1O)c(=O)n(CCN(C)C)c1c3cc4c(cc3ncc21)OCO4 | 0.0271 µM | – | 15.2 µM | 0.154 µM | 0.285 µM | 2.82 µM | – | 5.3 µM | < 0.01 µM | – | 1.52 µM | < 0.0104 µM | 0.0451 µM | 0.366 µM | 26.1 µM | 0.325 µM | 0.0284 µM | < 0.01 µM | – | –
CC(=O)[CH-]C(C)=O.CC(=O)[CH-]C(C)=O.[Cl-].[O]=[V] | – | 59.1 µM | 34.5 µM | > 100 µM | – | 70.1 µM | > 100 µM | > 100 µM | – | 20 µM | 18.2 µM | > 100 µM | – | – | – | 26.4 µM | 36.8 µM | 39.9 µM | > 100 µM | > 100 µM
O=C1c2cc3c(cc2-c2c1c1ccc(F)cc1c(=O)n2C[C@H](O)[C@H](O)[C@H](O)CO)OCO3 | – | 0.195 µM | 0.959 µM | 0.228 µM | – | 0.866 µM | 0.724 µM | > 100 µM | – | 0.04 µM | 0.193 µM | 0.0313 µM | – | 0.506 µM | 9.62 µM | 0.253 µM | 0.199 µM | 0.0927 µM | – | –
O=C(C=Nc1ccccc1S)c1ccco1 | 27.5 µM | 29.5 µM | 32.1 µM | 28.8 µM | 32.1 µM | – | 27.4 µM | 16.3 µM | – | – | – | – | – | – | – | – | – | – | – | –
CC[O-].CC[O-].O=C([CH-]C(=O)c1ccccc1)CCCCCCC(=O)[CH-]C(=O)c1ccccc1.[Ti+4] | > 100 µM | > 100 µM | > 100 µM | – | > 100 µM | > 100 µM | > 100 µM | > 100 µM | > 100 µM | > 100 µM | > 100 µM | – | > 100 µM | – | – | > 100 µM | > 100 µM | > 100 µM | – | –
